Measured values as given in US20110313015A1, “Fludioxonil Derivatives” (Bayer CropScience AG, priority 2010, published 2011).

Test system: common bent (Agrostis capillaris)
Assay: Herbicidal early post-emergence action (microtitre plate, visual assessment of damage)
Type: in vivo
Conditions: application rate 1900 g/ha, assessed after 10 days vs untreated controls, 100% = plants have died, 0% = like control plants
Protocol: Seeds of mono- and dicotyledonous harmful plants are, in a microtitre plate, placed into sand. The compounds according to the invention, formulated as emulsion concentrates (EC), are then applied as an aqueous emulsion using spray nozzles adapted to the uHTVS to the germinated plants. After the treatment, the microtitre plates are placed in a climatized chamber and kept under good growth conditions for the test plants. The visual assessment of the damage to the test plants is carried out after a trial period of 10 days by comparison with untreated controls (herbicidal activity in percent (%): 100% activity=the plants have died, 0% activity=like control plants).

Work on `COC(=O)CCn1cc(C#N)c(-c2cccc3c2OC(F)(F)O3)c1` [No. 1] yielded a herbicidal activity of 100%.
